# From patent US20210299162A1, “MOLECULAR HYDROGEN-CONTAINING COMPOSITION FOR PREVENTION AND/OR IMPROVEMENT OF ENCEPHALITIS AND/OR MENINGITIS AND SYMPTOM ASSOCIATED WITH THE ENCEPHALITIS AND/OR MENINGITIS” (MiZ Company Limited, priority 2020, published 2021)
# Key:
# meningococcal meningitis = conditions: person
# Procedure: The case patient is person. The patient presenting with pyrexia and disturbance of consciousness was admitted to hospital urgently. […] The patient initiated inhalation, which was performed for one to three hours per day for one month using a hydrogen gas generator “Jobs-α” (a hydrogen concentration, 4% to 6%; generation rate of hydrogen gas, 200 mL/min) manufactured by MiZ Company Limited.
# [1] = room temperature, normal pressure; also printed as 1.6 mg/L; cited from earlier work
SMILES,"symptoms (pyrexia, disturbance of consciousness) (meningococcal meningitis; administered for 17 days)",course after completion of the administration (meningococcal meningitis; after 17 days of administration),"clinical course (meningococcal meningitis; relapse after ceftriaxone, inhalation one to three hours per day for one month, hydrogen concentration 4% to 6%, 200 mL/min (Jobs-α))","brain MRI (ventriculitis) (meningococcal meningitis; after hydrogen inhalation one to three hours per day for one month, hydrogen concentration 4% to 6%)",concentration dissolved in water (solubility) [1]
"CO/N=C(\C(=O)N[C@@H]1C(=O)N2C(C(=O)O)=C(CSc3nc(=O)c(=O)[nH]n3C)CS[C@H]12)c1csc(N)n1 [Ceftriaxone, reference compound]",resolved symptoms,relapse,,,
"[HH] [hydrogen, molecular hydrogen]",,,began to improve,improvement of ventriculitis,approximately 1.6 ppm
